Measured values as given in article PMC8557901 (Microbiology Spectrum, 2021).

Columns and labels:
[1] = system: P. falciparum F32-ART5 quiescent parasites; experiment: Quiescent-stage survival assay (QSA); format: cell-based, Plasmodium falciparum; settings: artemisinin 3 μM 6 h then artemisinin + M1 2.5 μM 24 h versus artemisinin alone; 6-day threshold = active
Experimental: The Plasmodium falciparum artemisinin-resistant strain F32-ART5 and its twin artemisinin-sensitive line F32-TEM ([30], [31]) were cultivated at 37°C with 5% CO2 in human red blood cells (EFS [French Blood Bank]) diluted to 2% hematocrit in RPMI 1640 medium supplemented with 5% human serum (EFS) as previously reported ([47]).
Chemosensitivity evaluation of artemisinin-resistant parasites at the quiescent stage was performed on the F32-ART5 strain using the quiescent-stage survival assay (QSA) ([33]). D-Sorbitol-synchronized ring-stage parasites at 3% parasitemia (2% hematocrit) were first exposed to 3 μM artemisinin for 6 h to induce quiescence of artemisinin-resistant parasites. Then, quiescent parasites were exposed or not (as a control condition) to 2.5 μM M1 for 24 h. After drug exposure, parasite cultures were washed with RPMI 1640 medium and replaced in normal drug-free culture conditions. The time to parasite recrudescence was determined as the time required to reach initial parasitemia. […] In each experiment, results obtained with the condition “artemisinin 3 μM 6 h/artemisinin 3 μM 24 h” were compared to those obtained with the condition “artemisinin 3 μM 6 h/(artemisinin 3 μM + M1 2.5 μM) 24 h” in order to determine the delay in recrudescence time. […] Each experiment was carried out three times independently, and data statistically analyzed. […]

[2] = system: P. falciparum liver-stage parasites in human primary hepatocytes; experiment: In vitro liver-stage development, P. falciparum in human primary hepatocytes; format: cell-based, Plasmodium falciparum
Text: Primary human hepatocytes were isolated from liver segments obtained from adult patients undergoing partial hepatectomy (Service de Chirurgie Digestive, Hépato-Bilio Pancréatique, Hôpital Pitié Salpêtrière, Paris, France). Primary simian hepatocytes were isolated from liver segments collected from healthy Macaca fascicularis monkeys from CEA, Fontenay aux Roses, France. All hepatocytes were obtained using collagenase perfusion as previously described ([40]). […] Primary murine hepatocytes were isolated from liver segments collected from BALB/c mice. Human and murine hepatocytes were used directly after their isolation. Cells were seeded in 96-well plates (Falcon; Becton Dickinson Labware Europe, France) coated with collagen I (BD Bioscience, USA) at a density of 80,000 cells per well. […] For human hepatocytes, the complete medium was supplemented with 2% dimethyl sulfoxide (DMSO; Sigma-Aldrich, USA) before infection to preserve their differentiation.
On the day of infection, 3 · 10^4 sporozoites of P. falciparum, P. yoelii, and P. cynomolgi were added to their respective host cell cultures (human, murine, and simian). The infected culture plates were centrifuged for 10 min at 900 × g, allowing fast parasite sedimentation, and further incubated with serial dilutions of M1. Culture medium containing the appropriate drug concentration was refreshed daily, and cells were fixed at 48 h postinfection (p.i.) for infections with P. yoelii, 6 days p.i. for P. falciparum, or 8 days p.i. for P. cynomolgi. For the in vitro sporozoite invasion experiments, P. falciparum sporozoites were preincubated with 1, 10, and 100 μM M1 for 1 h at room temperature before hepatocyte infections. Three hours later, after sporozoite penetration into hepatocytes, cultures were washed and then further incubated with or without the presence of the drug during 6 days. DMSO was used as a negative control.
The number, size, and shape of the parasites were determined using a CellInsight high-content screening platform equipped with Studio HCS software (ThermoFisher Scientific). […] Host cell and parasite nuclei were labeled with DAPI (4′,6-diamidino-2-phenylindole). […] The custom script used for counting and measuring parasites first required identification of the objects based on a fluorescence intensity threshold. The object identity was then further validated based on size and morphological (shape) criteria. The presence of DAPI-associated fluorescence in the selected objects allowed their final selection and the rejection of false positives. […] The parasitic size reduction was calculated on the average object area using the total surface area of each selected object (μm^2).

[3] = Cytotoxicity on the MDCK renal cell line (MTT); format: cell-based, canine; settings: dog, MDCK cells
Experimental: MDCK cell line (Madin-Darby Canine Kidney cells) was maintained at 37 °C, 5% CO2 with 90% humidity in DMEM supplemented with 5% fetal bovine serum, 1% L-glutamine (200 mM), penicillin (100 U/mL) and streptomycin (100 μg/mL) (complete medium). The evaluation of Gamhepathiopine cytotoxicity on this cell line was performed according to the method of Mosman with slight modifications. Briefly, 3.10^4 cells in 100 μL of complete medium were inoculated into each well of 96-well plates and incubated at 37 °C in a humidified 5% CO2. After 24 h incubation, to obtain adherent cells, 100 μL of medium with various concentrations of Gamhepathipoine dissolved in DMSO were added and refreshed on a daily basis for 72 h at 37 °C. Each sample was tested on 4 technical replicates. The MTT solution (100µL/well, 0.5 mg/mL in medium without FBS) was then added to each well. Cells were incubated for 4 h at 37 °C. The MTT solution was then removed and a mixture of DMSO/Ethanol (1:1; 100 μL/well) was added to dissolve the resulting blue formazan crystals. The absorbance was measured at 540 nm on a Flex Station Microplate Reader.

[4] = system: P. yoelii in HepG2-CD81 cells; experiment: Hepatic stage of P. yoelii in HepG2-CD81 cells; format: cell-based; settings: Plasmodium yoelii; hepatic schizonts
Experimental: Hepatocytes were seeded into collagen-coated black 96-well plates and maintained at 37°C in 5% CO2 in complete medium. […] The infected culture plates were centrifuged for 10 min at 900 × g, allowing fast parasite sedimentation, and further incubated with serial dilutions of M1. […] DMSO was used as a negative control. The number, size, and shape of the parasites were determined using a CellInsight high-content screening platform equipped with Studio HCS software (ThermoFisher Scientific). The parasite immunostaining was done using an […]70 antibody raised in mice and a secondary anti-mouse antibody coupled to Alexa Fluor 488 ([43]). […] Thirty-seven images, representing more than 95% of the total bottom surface area of a culture well in 96-well plates, were captured for analysis. The custom script used for counting and measuring parasites first required identification of the objects based on a fluorescence intensity threshold. The object identity was then further validated based on size and morphological (shape) criteria. The presence of DAPI-associated fluorescence in the selected objects allowed their final selection and the rejection of false positives. […] The parasitic size reduction was calculated on the average object area using the total surface area of each selected object (μm^2).

Cc1ccc(-c2cc3nc(NC(C)(C)C)[nH]c(=O)c3s2)cc1 [Metabolite M1, 2-(tert-Butylamino)-6-(p-tolyl)thieno[3,2-d]pyrimidin-4(3H)-one]
median delay in recrudescence time [1]: 6 days
concentration from which liver-stage development was fully inhibited ([2]; P. falciparum in human hepatocytes): 14 µM
EC50 ([2]; Plasmodium falciparum, Hepatocyte, P. falciparum in human primary hepatocytes (HH), mean ± SEM of triplicate experiments, read-out: EC50 against liver-stage parasites): 450 ± 150 nM
SI (selectivity index) ([2]; hepatocyte CC50/EC50, P. falciparum (HH)): >133
Size reduction at 10 μM (%) ([2]; parasite (schizont) size, 10 μM, P. falciparum (HH)): 80%
CC50 at 72 h [3]: 39500 nM
EC50 [4]: 0.067 µM
